Data from paper PMC5920042, “KH176 Safeguards Mitochondrial Diseased Cells from Redox Stress-Induced Cell Death by Interacting with the Thioredoxin System/Peroxiredoxin Enzyme Machinery” (Scientific Reports, 2018).
pEC50: −log10 of the molar value. Where “and” joins values, the source holds several entries; their conditions need not be identical. Equal values may be shown once.

Tests used:
P4 cell line [1] = assay: Redox Stress Survival assay (BSO-induced cell death, Calcein AM viability); format: cell-based, human
Description: Cells were seeded at a density of 4 × 10^3 cells/well into 96-wells black plates and incubated for 24 h. To induce redox stress, semi-logarithmic dilutions of buthionine sulphoximine (BSO, #B2515, Sigma Aldrich) up to 100 µM were added to the cells in culture medium and incubated for 24 h. Cell viability was assessed by quantification of cellular conversion of Calcein AM into fluorescent Calcein. Briefly, after having discarded the BSO containing medium, cells were washed once with M199 without phenol red and loaded with 2 µM Calcein AM (#65-0853-39, Affimetrix eBioscience) in M199 without phenol red for 25 min. At the end of the incubation period, the excess of the dye was washed with M199 without phenol red and Calcein fluorescence was measured with a scanning microplate reader (BMG FLUOstar Omega; Ex. 480 nm, Em. 520 nm). For compound screening and target identification measurements cells were treated with 200 µM BSO alone or in co-incubation with semi-logarithmic dilutions of the test compound. Additionally, where indicated, increasing doses of Auranofin (AFN, #BML-EI206-0100, Enzo) or Aurothioglucose (ATG, #A0606, Sigma Aldrich) were co-incubated with BSO and the test compound. In all cases, cell viability was assessed 24 h after the treatment.

P4 cell line [2] = assay: Radical-Scavenging Capacity assay (CM-H2DCFDA, H2O2 or KO2); format: cell-based, human; conditions: P4 cells, 100 µM H2O2 or 1 mM KO2 (text: KOH), 3 µM compound
Description: Cells were seeded at a density of 4 × 10^3 cells/well into 96-wells black plates. After 24 h the cells were loaded with 5 µM CM-H2DCFDA in M199 without phenol red for 20 min. The dye excess was washed with M199 without phenol red and immediately after, cells were treated acutely with different concentrations of the test compounds in M199 without phenol red. To generate radicals, 100 µM H2O2 or 1 mM KO2 were injected to the compound-treated cells and CM-DCF fluorescence was measured every 2 min for 70 cycles on a scanning microplate reader (BMG FLUOstar Omega; Ex. 480 nm, Em. 520 nm). The area under the generated curves was calculated using the Origin 6.1 software (OriginLab).

P4 cell line [3] = assay: GSH measurements (GSH-Glo) under BSO; format: cell-based, human; conditions: increasing BSO 24 h, 1 µM compound
Description: Cells were seeded at a density of 4 × 10^3 cells/well into 96-wells white plates (#655098, Greiner Bio-one). After 24 h the cells were treated with semi-logarithmic dilutions of BSO up to a concentration of 100 µM alone or in co-incubation with a fixed amount of the test compound. 24 h after the treatment, GSH levels were measured with the GSH-Glo™ Glutathione Assay (# V6911, Promega) according to the manufacturer instructions. Luminescence was measured on a scanning microplate reader (BMG FLUOstar Omega).

[4] = Single dose pharmacokinetics and bioavailability study; format: in vivo, male Sprague Dawley rats; conditions: rat, plasma
Description: (§1) Pharmacokinetics and toxicokinetics measurements were performed by the commercial Contract Research Organizations Sai Life Sciences and WuXi AppTec, respectively, according to their standard protocols and in accordance with relevant guidelines and regulations. C57 BL/6 mice, Sprague Dawley rats, and Beagle dogs were studied.

[5] = 28-day repeat oral dose toxicity study, toxicokinetics; format: in vivo, Sprague Dawley rats; conditions: rat
Description: as §1

[6] = as above; format: in vivo, Beagle dogs; conditions: dog
Description: as §1

[7] = KH176 25 mg/kg/dose BID oral, F, Day 1
[8] = KH176 25 mg/kg/dose BID oral, F, Day 1, plasma
[9] = KH176 25 mg/kg/dose BID oral, F, Day 28
[10] = KH176 25 mg/kg/dose BID oral, F, Day 28, plasma
[11] = KH176 25 mg/kg/dose BID oral, M, Day 1
[12] = KH176 25 mg/kg/dose BID oral, M, Day 1, plasma
[13] = KH176 25 mg/kg/dose BID oral, M, Day 28
[14] = KH176 25 mg/kg/dose BID oral, M, Day 28, plasma
[15] = KH176 75 mg/kg/dose BID oral, F, Day 1, plasma
[16] = KH176 75 mg/kg/dose BID oral, F, Day 28, plasma
[17] = KH176 75 mg/kg/dose BID oral, M, Day 1, plasma
[18] = KH176 75 mg/kg/dose BID oral, M, Day 28, plasma
[19] = KH176 250 mg/kg/dose BID oral, F, Day 1, plasma
[20] = KH176 250 mg/kg/dose BID oral, F, Day 28, plasma
[21] = KH176 250 mg/kg/dose BID oral, M, Day 1, plasma
[22] = KH176 250 mg/kg/dose BID oral, M, Day 28, plasma
[23] = KH176 10 mg/kg/dose BID oral, F, Day 1, plasma
[24] = KH176 10 mg/kg/dose BID oral, F, Day 28, plasma
[25] = KH176 10 mg/kg/dose BID oral, M, Day 1, plasma
[26] = KH176 10 mg/kg/dose BID oral, M, Day 28, plasma
[27] = KH176 62.5 mg/kg/dose BID oral, F, Day 1, plasma
[28] = KH176 62.5 mg/kg/dose BID oral, F, Day 28, plasma
[29] = KH176 62.5 mg/kg/dose BID oral, M, Day 1, plasma
[30] = KH176 62.5 mg/kg/dose BID oral, M, Day 28, plasma

With `CC1=C(C)C(=O)C(CC[C@](C)(O)C(=O)N[C@@H]2CCCNC2)=C(C)C1=O` [KH176m] the pEC50 (P4 cell line [1]; P4 cells, 200 µM BSO, 24 h) was 7.42 and 7.41, the “Viability of patient cells under BSO” value (P4 cell line [1]; increasing BSO 24 h, 1 µM compound) was “fully protected” and the “Reduction of H2O2-induced radicals and O2.- (CM-H2DCFDA oxidation)” value (P4 cell line [2]) was “able to reduce the levels of both radicals”. The “GSH level under BSO” value (P4 cell line [3]) was “remained unaffected”, the AUCINF ([4]; KH176 2 mg/kg i.v.) was 206.1 ng·h/mL and the AUClast ([4]; KH176 2 mg/kg i.v.) was 150.2 ng·h/mL. For the same compound, the T1/2 ([4]; KH176 2 mg/kg i.v.) was 2.3 h, the “C0 (i.v.)” value ([4]; KH176 2 mg/kg i.v., back extrapolated) was 59.7 ng/mL and the AUCINF ([4]; KH176 10 mg/kg p.o.) was 1503.2 ng·h/mL. For the same compound, the AUClast ([4]; KH176 10 mg/kg p.o.) was 1441.1 ng·h/mL, the “Cmax (p.o.)” value ([4]; KH176 10 mg/kg p.o.) was 396.4 ng/mL and the Tmax ([4]; KH176 10 mg/kg p.o.) was 0.5 h. The “AUC0–24 h Ratio KH176m/KH176” value [5, 7] was 0.091, the “AUC0–24 h” value [5, 8] was 1140 ng·h/mL and the Cmax [5, 8] was 85.9 ng/mL. The T1/2 [5, 8] was 4.5 h, the “AUC0–24 h Ratio KH176m/KH176” value [5, 9] was 0.074 and the “AUC0–24 h” value [5, 10] was 1410 ng·h/mL. For the same compound, the Cmax [5, 10] was 123 ng/mL, the T1/2 [5, 10] was 6.2 h and the “AUC0–24 h Ratio KH176m/KH176” value [5, 11] was 0.075. The “AUC0–24 h” value [5, 12] was 792 ng·h/mL, the Cmax [5, 12] was 92.7 ng/mL and the T1/2 [5, 12] was 2.3 h. For the same compound, the “AUC0–24 h Ratio KH176m/KH176” value [5, 13] was 0.064, the “AUC0–24 h” value [5, 14] was 993 ng·h/mL and the Cmax [5, 14] was 126 ng/mL. The T1/2 [5, 14] was 13.3 h, the “AUC0–24 h Ratio KH176m/KH176” value ([5]; KH176 75 mg/kg/dose BID oral, F, Day 1) was 0.073 and the “AUC0–24 h” value [5, 15] was 3090 ng·h/mL. For the same compound, the Cmax [5, 15] was 203 ng/mL, the T1/2 [5, 15] was 30.9 h and the “AUC0–24 h Ratio KH176m/KH176” value ([5]; KH176 75 mg/kg/dose BID oral, F, Day 28) was 0.067. For the same compound, the “AUC0–24 h” value [5, 16] was 5120 ng·h/mL, the Cmax [5, 16] was 305 ng/mL and the T1/2 [5, 16] was 12.9 h. The “AUC0–24 h Ratio KH176m/KH176” value ([5]; KH176 75 mg/kg/dose BID oral, M, Day 1) was 0.080, the “AUC0–24 h” value [5, 17] was 2640 ng·h/mL and the Cmax [5, 17] was 187 ng/mL. The T1/2 [5, 17] was 3.5 h, the “AUC0–24 h Ratio KH176m/KH176” value ([5]; KH176 75 mg/kg/dose BID oral, M, Day 28) was 0.067 and the “AUC0–24 h” value [5, 18] was 3100 ng·h/mL. The Cmax [5, 18] was 265 ng/mL, the “AUC0–24 h Ratio KH176m/KH176” value ([5]; KH176 250 mg/kg/dose BID oral, F, Day 1) was 0.073 and the “AUC0–24 h” value [5, 19] was 7630 ng·h/mL. For the same compound, the Cmax [5, 19] was 415 ng/mL, the “AUC0–24 h Ratio KH176m/KH176” value ([5]; KH176 250 mg/kg/dose BID oral, F, Day 28) was 0.071 and the “AUC0–24 h” value [5, 20] was 17300 ng·h/mL. The Cmax [5, 20] was 913 ng/mL, the “AUC0–24 h Ratio KH176m/KH176” value ([5]; KH176 250 mg/kg/dose BID oral, M, Day 1) was 0.055 and the “AUC0–24 h” value [5, 21] was 5170 ng·h/mL. For the same compound, the Cmax [5, 21] was 312 ng/mL, the T1/2 [5, 21] was 104.4 h and the “AUC0–24 h Ratio KH176m/KH176” value ([5]; KH176 250 mg/kg/dose BID oral, M, Day 28) was 0.066. The “AUC0–24 h” value [5, 22] was 10400 ng·h/mL, the Cmax [5, 22] was 777 ng/mL and the T1/2 [5, 22] was 6.5 h. The “AUC0–24 h Ratio KH176m/KH176” value ([6]; KH176 10 mg/kg/dose BID oral, F, Day 1) was 0.864, the “AUC0–24 h” value [6, 23] was 7640 ng·h/mL and the Cmax [6, 23] was 539 ng/mL. For the same compound, the T1/2 [6, 23] was 5.4 h, the “AUC0–24 h Ratio KH176m/KH176” value ([6]; KH176 10 mg/kg/dose BID oral, F, Day 28) was 0.719 and the “AUC0–24 h” value [6, 24] was 10500 ng·h/mL. For the same compound, the Cmax [6, 24] was 786 ng/mL, the T1/2 [6, 24] was 4.7 h and the “AUC0–24 h Ratio KH176m/KH176” value ([6]; KH176 10 mg/kg/dose BID oral, M, Day 1) was 0.848. The “AUC0–24 h” value [6, 25] was 13900 ng·h/mL, the Cmax [6, 25] was 946 ng/mL and the T1/2 [6, 25] was 4.7 h. For the same compound, the “AUC0–24 h Ratio KH176m/KH176” value ([6]; KH176 10 mg/kg/dose BID oral, M, Day 28) was 0.668, the “AUC0–24 h” value [6, 26] was 12700 ng·h/mL and the Cmax [6, 26] was 916 ng/mL. For the same compound, the T1/2 [6, 26] was 7.7 h, the “AUC0–24 h Ratio KH176m/KH176” value [6, 7] was 0.845 and the “AUC0–24 h” value [6, 8] was 35400 ng·h/mL. The Cmax [6, 8] was 2200 ng/mL, the “AUC0–24 h Ratio KH176m/KH176” value [6, 9] was 0.823 and the “AUC0–24 h” value [6, 10] was 32900 ng·h/mL. For the same compound, the Cmax [6, 10] was 2170 ng/mL, the “AUC0–24 h Ratio KH176m/KH176” value [6, 11] was 0.967 and the “AUC0–24 h” value [6, 12] was 41200 ng·h/mL. The Cmax [6, 12] was 2610 ng/mL, the T1/2 [6, 12] was 11.1 h and the “AUC0–24 h Ratio KH176m/KH176” value [6, 13] was 0.970. For the same compound, the “AUC0–24 h” value [6, 14] was 38700 ng·h/mL, the Cmax [6, 14] was 2270 ng/mL and the T1/2 [6, 14] was 14.3 h. The “AUC0–24 h Ratio KH176m/KH176” value ([6]; KH176 62.5 mg/kg/dose BID oral, F, Day 1) was 0.908, the “AUC0–24 h” value [6, 27] was 57300 ng·h/mL and the Cmax [6, 27] was 3550 ng/mL. For the same compound, the T1/2 [6, 27] was 5.3 h, the “AUC0–24 h Ratio KH176m/KH176” value ([6]; KH176 62.5 mg/kg/dose BID oral, F, Day 28) was 0.938 and the “AUC0–24 h” value [6, 28] was 80200 ng·h/mL. For the same compound, the Cmax [6, 28] was 4990 ng/mL, the T1/2 [6, 28] was 12.2 h and the “AUC0–24 h Ratio KH176m/KH176” value ([6]; KH176 62.5 mg/kg/dose BID oral, M, Day 1) was 0.743. For the same compound, the “AUC0–24 h” value [6, 29] was 68000 ng·h/mL, the Cmax [6, 29] was 4020 ng/mL and the T1/2 [6, 29] was 12.9 h. For the same compound, the “AUC0–24 h Ratio KH176m/KH176” value ([6]; KH176 62.5 mg/kg/dose BID oral, M, Day 28) was 0.835, the “AUC0–24 h” value [6, 30] was 85200 ng·h/mL and the Cmax [6, 30] was 5250 ng/mL.
